From US12252524B2, “GIP/GLP1 co-agonist compounds” (Eli Lilly and Company, priority 2018, dated 2025)
Numbered stars: 1 amine (or outer) side, 2 acyl side, 3 side chain; on linkers, the order of the positions; unused ones are H or OH. Square brackets hold non-standard residues; d marks the D form. Side chains are listed from the residue outwards. Peptide text beside a SMILES is read from it. * marks the point of attachment. C20 diacid = O=C(O)CCCCCCCCCCCCCCCCCCC(=O)*; C18 diacid = O=C(O)CCCCCCCCCCCCCCCCC(=O)*; γGlu = O=C(O)[C@H](CCC(=O)[*:2])N[*:1]; αMeL = CC(C)C[C@](C)(N)C(=O)O; AEEA = NCCOCCOCC(=O)O; Aib = CC(C)(N)C(=O)O

Columns and labels:
[1] = molecular target: T1, human GLP-1R (Homo sapiens, UniProt P43220); assay: [125I]-GLP-1 binding (SPA), human GLP-1 receptor; parameters: expressed in transfected cells; crude membranes; details: read-out: hGLP1R Ki, (nM) (SEM, n)
Summary of the method: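 Assay buffer: HEPES 25 mM, pH 7.4, CaCl2 2.5 mM, MgCl2 1 mM, with EDTA-free protease inhibitors. Receptor came from crude cell membranes prepared by homogenization and centrifugation at 4° C. IC50s came from four-parameter fits (maximum, minimum, IC50, Hill slope) and were expressed as Ki geometric means with SEM.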

[2] = molecular target: T2, human GIP receptor (Homo sapiens, UniProt P48546); assay: [125I]-GIP binding (SPA), human GIP receptor; details: read-out: hGIPR Ki, nM (SEM, n)
T2 construct: expressed in transfected cells; crude membranes
T2 sequence (P48546 22-466): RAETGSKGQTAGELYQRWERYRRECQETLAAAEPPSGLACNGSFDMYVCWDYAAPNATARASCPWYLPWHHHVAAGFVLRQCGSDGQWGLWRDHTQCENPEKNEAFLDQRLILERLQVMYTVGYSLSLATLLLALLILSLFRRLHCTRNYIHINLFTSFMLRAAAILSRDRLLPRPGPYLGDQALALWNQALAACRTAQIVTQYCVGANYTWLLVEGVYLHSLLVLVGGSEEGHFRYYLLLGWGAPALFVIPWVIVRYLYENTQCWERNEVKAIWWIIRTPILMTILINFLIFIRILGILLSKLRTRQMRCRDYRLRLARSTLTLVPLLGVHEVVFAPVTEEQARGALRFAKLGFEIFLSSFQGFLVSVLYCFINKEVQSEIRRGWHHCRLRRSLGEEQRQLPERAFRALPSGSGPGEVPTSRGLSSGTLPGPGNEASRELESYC

[3] = molecular target: T3, human Gcg receptor (Homo sapiens, UniProt P47871); assay: [125I]-Glucagon binding (SPA), human Gcg receptor; details: read-out: hGLcgR Ki, nM (SEM, n)
T3 construct: expressed in transfected cells; crude membranes
Summary of the method: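 Crude membranes from cells expressing the receptor, prepared by hypotonic lysis in 50 mM Tris HCl pH 7.5 with protease inhibitors, homogenization and differential centrifugation, were used in a WGA-bead SPA. Binding buffer: 25 mM HEPES pH 7.4, 2.5 mM CaCl2, 1 mM MgCl2, bacitracin, Tween-20.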

[4] = molecular target: human GLP-1 receptor (GLP-1R) (Homo sapiens, UniProt P43220); assay: cAMP pharmacological functional assay in presence of casein, hGLP-1R; format: cell-based; details: HEK293 cells expressing hGLP-1R, 0.1% Casein, geometric mean; read-out: hGLP1R cAMP Rel EC50 nM (SEM, n)
[5] = molecular target: T4, gastric inhibitory peptide receptor (GIPR) (Homo sapiens, UniProt P48546); assay: cAMP pharmacological functional assay in presence of casein, hGIPR; format: cell-based; details: HEK293 cells expressing hGIPR, 0.1% Casein, geometric mean; read-out: hGIPR cAMP Rel EC50 nM (SEM, n)
T4 sequence (P48546 22-466): T2 sequence (P48546 22-466)

[6] = molecular target: T1, human GLP-1R; assay: GLP-1R HEK293 cell membrane [35S]GTPγS binding assay; format: biochemical; parameters: expressed in transfected cells; host or cells: HEK293 cells expressing human GLP-1R; membranes; details: HEK293 cell membranes expressing human GLP-1R, [35S]GTPγS binding; read-out: hGLP1R GTPgS Rel EC50 nM (SEM, n)
Protocol: The GLP-1 receptor is a G-protein coupled receptor that increases GTP-bound Gas upon ligand induced receptor activation. The potency of peptides to stimulate-GLP-1R induced activation of Gac is determined using preparations of purified membranes from HEK293 cells expressing the human GLP-1R. […] The test peptides are solubilized in DMSO and diluted in reaction buffer containing 5 μg of membrane in 20 mM HEPES pH 7.4, 50 mM NaCl, 5 mM MgCl2, 40 μg/ml saponin, 0.1% BSA, and […] ^35S-labeled GTPTS for 30 minutes at room temperature. Reactions are terminated by addition of 0.2% Nonidet β-40 detergent containing rabbit anti-Gas polyclonal antibody and 0.5 mg of anti-rabbit polyvinyltoluene beads. Mixtures are developed for 30 minutes, centrifuged at 80×g for 10 minutes, and counted for 1 minute/well using a MicroBeta TriLux instrument. Peptide concentration-response curves are fit to a four-parameter logistic model to calculate potency as an EC50.

Sequence of human GLP-1 receptor (GLP-1R) (P43220 24-463): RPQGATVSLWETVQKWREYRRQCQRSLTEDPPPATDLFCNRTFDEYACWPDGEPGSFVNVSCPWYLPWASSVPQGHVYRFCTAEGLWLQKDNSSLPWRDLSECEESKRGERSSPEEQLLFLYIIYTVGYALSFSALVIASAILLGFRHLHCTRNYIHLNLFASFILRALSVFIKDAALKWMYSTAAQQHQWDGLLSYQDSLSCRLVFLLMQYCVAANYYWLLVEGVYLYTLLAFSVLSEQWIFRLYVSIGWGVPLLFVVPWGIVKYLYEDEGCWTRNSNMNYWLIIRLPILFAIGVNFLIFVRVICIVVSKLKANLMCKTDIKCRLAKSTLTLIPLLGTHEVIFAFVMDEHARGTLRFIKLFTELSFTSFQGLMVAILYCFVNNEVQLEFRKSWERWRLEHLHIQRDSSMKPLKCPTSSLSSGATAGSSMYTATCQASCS
T1 sequence (P43220 24-463): as above
T3 sequence (P47871 26-477): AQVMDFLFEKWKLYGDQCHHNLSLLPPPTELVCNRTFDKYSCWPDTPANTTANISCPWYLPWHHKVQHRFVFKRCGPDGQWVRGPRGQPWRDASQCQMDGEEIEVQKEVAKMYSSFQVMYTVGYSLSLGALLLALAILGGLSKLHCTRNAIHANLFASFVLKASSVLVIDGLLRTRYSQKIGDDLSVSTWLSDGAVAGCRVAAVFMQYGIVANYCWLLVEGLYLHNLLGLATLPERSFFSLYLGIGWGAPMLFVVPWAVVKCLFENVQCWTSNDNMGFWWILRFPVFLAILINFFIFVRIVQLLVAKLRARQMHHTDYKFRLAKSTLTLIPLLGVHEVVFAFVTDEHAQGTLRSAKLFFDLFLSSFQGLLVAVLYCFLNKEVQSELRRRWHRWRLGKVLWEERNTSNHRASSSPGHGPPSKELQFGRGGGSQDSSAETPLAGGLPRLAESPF

Row | Compound | Ki [1] [nM] | Ki [2] [nM] | Ki [3] [nM] | EC50 [4] [nM] | EC50 [5] [nM] | EC50 [6] [nM]
1 | CC[C@H](C)[C@H](NC(=O)[C@H](CC(C)C)NC(=O)[C@H](Cc1ccc(O)cc1)NC(=O)[C@H](CCC(=O)O)NC(=O)[C@@H](NC(=O)[C@H](Cc1ccccc1)NC(=O)[C@H](CCC(=O)O)NC(=O)C(C)(C)NC(=O)[C@H](CCC(N)=O)NC(=O)[C@H](C)NC(=O)[C@H](CCCCNC(=O)COCCOCCNC(=O)COCCOCCNC(=O)CC[C@H](NC(=O)CCCCCCCCCCCCCCCCC(=O)O)C(=O)O)NC(=O)[C@H](CCCCN)NC(=O)[C@H](CC(=O)O)NC(=O)[C@H](CC(C)C)NC(=O)[C@](C)(CC(C)C)NC(=O)[C@@H](NC(=O)[C@H](CO)NC(=O)[C@H](Cc1ccc(O)cc1)NC(=O)[C@H](CC(=O)O)NC(=O)[C@H](CO)NC(=O)[C@@H](NC(=O)[C@H](Cc1ccccc1)NC(=O)[C@@H](NC(=O)CNC(=O)[C@H](CCC(=O)O)NC(=O)C(C)(C)NC(=O)[C@@H](N)Cc1ccc(O)cc1)[C@@H](C)O)[C@@H](C)O)[C@@H](C)CC)[C@@H](C)CC)C(=O)N[C@@H](C)C(=O)NCC(=O)NCC(=O)N1CCC[C@H]1C(=O)N[C@@H](CO)C(=O)N[C@@H](CO)C(=O)NCC(N)=O [Example 306] (H-Y[Aib]EGTFTSDYSI[αMeL]LDKK([AEEA-AEEA-γGlu-C18 diacid])AQ[Aib]EFIEYLIAGGPSSG-NH2) | 2.86 | 0.0349 | > 1040 | 0.0711 | 0.0191 | 0.378
2 | CC[C@H](C)[C@H](NC(=O)[C@H](CC(C)C)NC(=O)[C@H](Cc1ccc(O)cc1)NC(=O)[C@H](CCC(=O)O)NC(=O)[C@@H](NC(=O)[C@H](Cc1ccccc1)NC(=O)[C@H](CCC(=O)O)NC(=O)C(C)(C)NC(=O)[C@H](CCC(N)=O)NC(=O)[C@H](C)NC(=O)[C@H](CCCCNC(=O)COCCOCCNC(=O)COCCOCCNC(=O)CC[C@H](NC(=O)CCCCCCCCCCCCCCCCCCC(=O)O)C(=O)O)NC(=O)[C@H](CCCCN)NC(=O)[C@H](CC(=O)O)NC(=O)[C@H](CC(C)C)NC(=O)[C@H](CC(C)C)NC(=O)[C@@H](NC(=O)[C@H](CO)NC(=O)[C@H](Cc1ccc(O)cc1)NC(=O)[C@H](CC(=O)O)NC(=O)[C@H](CO)NC(=O)[C@@H](NC(=O)[C@H](Cc1ccccc1)NC(=O)[C@@H](NC(=O)CNC(=O)[C@H](CCC(=O)O)NC(=O)C(C)(C)NC(=O)[C@@H](N)Cc1ccc(O)cc1)[C@@H](C)O)[C@@H](C)O)[C@@H](C)CC)[C@@H](C)CC)C(=O)N[C@@H](C)C(=O)NCC(=O)NCC(=O)N1CCC[C@H]1C(=O)N[C@@H](CO)C(=O)N[C@@H](CO)C(=O)NCC(=O)N[C@@H](C)C(=O)N1CCC[C@H]1C(=O)N1CCC[C@H]1C(=O)N1CCC[C@H]1C(=O)N[C@@H](CO)C(N)=O [Example 319] (H-Y[Aib]EGTFTSDYSILLDKK([AEEA-AEEA-γGlu-C20 diacid])AQ[Aib]EFIEYLIAGGPSSGAPPPS-NH2) | 3.61 | 0.0349 | > 984 | 0.113 | 0.054 | 0.657
3 | CC[C@H](C)[C@H](NC(=O)[C@H](CC(C)C)NC(=O)[C@H](Cc1ccc(O)cc1)NC(=O)[C@H](CCC(=O)O)NC(=O)[C@@H](NC(=O)[C@H](Cc1ccccc1)NC(=O)[C@H](C)NC(=O)C(C)(C)NC(=O)[C@H](CCC(N)=O)NC(=O)[C@H](C)NC(=O)[C@H](CCCCNC(=O)COCCOCCNC(=O)COCCOCCNC(=O)CC[C@H](NC(=O)CCCCCCCCCCCCCCCCC(=O)O)C(=O)O)NC(=O)[C@H](CCC(=O)O)NC(=O)[C@H](CC(=O)O)NC(=O)[C@H](CC(C)C)NC(=O)[C@](C)(CC(C)C)NC(=O)[C@@H](NC(=O)[C@H](CO)NC(=O)[C@H](Cc1ccc(O)cc1)NC(=O)[C@H](CC(=O)O)NC(=O)[C@H](CO)NC(=O)[C@@H](NC(=O)[C@H](Cc1ccccc1)NC(=O)[C@@H](NC(=O)CNC(=O)[C@H](CCC(=O)O)NC(=O)C(C)(C)NC(=O)[C@@H](N)Cc1ccc(O)cc1)[C@@H](C)O)[C@@H](C)O)[C@@H](C)CC)[C@@H](C)CC)C(=O)N[C@@H](CCC(=O)O)C(=O)NCC(=O)NCC(=O)N1CCC[C@H]1C(=O)N[C@@H](CO)C(=O)N[C@@H](CO)C(=O)NCC(=O)N[C@@H](C)C(=O)N1CCC[C@H]1C(=O)N1CCC[C@H]1C(=O)N1CCC[C@H]1C(=O)N[C@@H](CO)C(N)=O [Example 323] (H-Y[Aib]EGTFTSDYSI[αMeL]LDEK([AEEA-AEEA-γGlu-C18 diacid])AQ[Aib]AFIEYLIEGGPSSGAPPPS-NH2) | 1.65 | 0.0516 | 300 | 0.0597 | 0.0251 | 0.79

Other lines, results leading:

Row | Ki [1] [nM] | Ki [2] [nM] | Ki [3] [nM] | EC50 [4] [nM] | EC50 [5] [nM] | EC50 [6] [nM] | Compound
4 | 2.63 | 0.0215 | 253 | 0.172 | 0.0948 | 0.536 | CC[C@H](C)[C@H](NC(=O)[C@H](CC(C)C)NC(=O)[C@H](Cc1ccc(O)cc1)NC(=O)[C@H](CCC(=O)O)NC(=O)[C@@H](NC(=O)[C@H](Cc1ccccc1)NC(=O)[C@H](C)NC(=O)C(C)(C)NC(=O)[C@H](CCC(N)=O)NC(=O)[C@H](C)NC(=O)[C@H](CCCCNC(=O)COCCOCCNC(=O)COCCOCCNC(=O)CC[C@H](NC(=O)CCCCCCCCCCCCCCCCCCC(=O)O)C(=O)O)NC(=O)[C@H](CCCCN)NC(=O)[C@H](CC(=O)O)NC(=O)[C@H](CC(C)C)NC(=O)[C@H](CC(C)C)NC(=O)[C@@H](NC(=O)[C@H](CO)NC(=O)[C@H](Cc1ccc(O)cc1)NC(=O)[C@H](CC(=O)O)NC(=O)[C@H](CO)NC(=O)[C@@H](NC(=O)[C@H](Cc1ccccc1)NC(=O)[C@@H](NC(=O)CNC(=O)[C@H](CCC(=O)O)NC(=O)C(C)(C)NC(=O)[C@@H](N)Cc1ccc(O)cc1)[C@@H](C)O)[C@@H](C)O)[C@@H](C)CC)[C@@H](C)CC)C(=O)N[C@@H](C)C(=O)NCC(=O)NCC(=O)N1CCC[C@H]1C(=O)N[C@@H](CO)C(=O)N[C@@H](CO)C(=O)NCC(N)=O [Example 317] (H-Y[Aib]EGTFTSDYSILLDKK([AEEA-AEEA-γGlu-C20 diacid])AQ[Aib]AFIEYLIAGGPSSG-NH2; N-terminus assumed)
5 | 7.52 | 0.0452 | 730 | 0.124 | 0.0547 | 0.415 | CC[C@H](C)[C@H](NC(=O)[C@H](CC(C)C)NC(=O)[C@H](Cc1ccc(O)cc1)NC(=O)[C@H](CCC(=O)O)NC(=O)[C@@H](NC(=O)[C@H](Cc1ccccc1)NC(=O)[C@H](CCC(=O)O)NC(=O)C(C)(C)NC(=O)[C@H](CCC(N)=O)NC(=O)[C@H](C)NC(=O)[C@H](CCCCNC(=O)COCCOCCNC(=O)COCCOCCNC(=O)CC[C@H](NC(=O)CCCCCCCCCCCCCCCCCCC(=O)O)C(=O)O)NC(=O)[C@H](CCCCN)NC(=O)[C@H](CC(=O)O)NC(=O)[C@H](CC(C)C)NC(=O)[C@H](CC(C)C)NC(=O)[C@@H](NC(=O)[C@H](CO)NC(=O)[C@H](Cc1ccc(O)cc1)NC(=O)[C@H](CC(=O)O)NC(=O)[C@H](CO)NC(=O)[C@@H](NC(=O)[C@H](Cc1ccccc1)NC(=O)[C@@H](NC(=O)CNC(=O)[C@H](CCC(=O)O)NC(=O)C(C)(C)NC(=O)[C@@H](N)Cc1ccc(O)cc1)[C@@H](C)O)[C@@H](C)O)[C@@H](C)CC)[C@@H](C)CC)C(=O)N[C@@H](C)C(=O)NCC(=O)NCC(=O)N1CCC[C@H]1C(=O)N[C@@H](CO)C(=O)N[C@@H](CO)C(=O)NCC(N)=O [Example 318] (H-Y[Aib]EGTFTSDYSILLDKK([AEEA-AEEA-γGlu-C20 diacid])AQ[Aib]EFIEYLIAGGPSSG-NH2; N-terminus assumed)
